Laboratory results from EP4316461A1, “A PRESERVATIVE COMPOSITION” (BRAIN Biotech AG, priority 2022, dated 2024).
Values after ≈ are worked out from the molar mass of the structure shown.

Columns and labels:
Type in all cases: cell-based
[1] = tested on: Fusobacterium nucleatum subsp. vincentii; test: Antimicrobial activity (MIC); conditions: Fusobacterium nucleatum, DSM19507; Strain ID DSM 19507; potato dextrose broth pH 3.8; read-out: Minimal Inhibitory Concentration (MIC)
[2] = tested on: Alicyclobacillus acidoterrestris; test: Antimicrobial activity (MIC); conditions: Alicyclobacillus acidoterrestris, DSM2498; Strain ID DSM 2498; potato dextrose broth pH 3.8; read-out: Minimal Inhibitory Concentration (MIC)
[3] = tested on: Saccharomyces cerevisiae; test: Antimicrobial activity (MIC); conditions: Saccharomyces cerevisiae, DSM2548; Strain ID DSM 2548; potato dextrose broth pH 3.8; read-out: Minimal Inhibitory Concentration (MIC)
[4] = tested on: Pseudomonas fluorescens; test: Antimicrobial activity (MIC); conditions: Pseudomonas fluorescens; Strain ID DSM50337; potato dextrose broth pH 3.8; read-out: Minimal Inhibitory Concentration (MIC)
[5] = tested on: Alternaria alternata; test: Antimicrobial activity (MIC); conditions: Alternaria alternata, DSM12633; Strain ID DSM 12633; potato dextrose broth pH 3.8; read-out: Minimal Inhibitory Concentration (MIC)
[6] = tested on: Pseudomonas aeruginosa; test: Antimicrobial activity (MIC); conditions: Pseudomonas aeruginosa, DSM1117; Strain ID DSM 1117; potato dextrose broth pH 3.8; read-out: Minimal Inhibitory Concentration (MIC)
[7] = tested on: Lactobacillus plantarum ssp. plantarum; test: Antimicrobial activity (MIC); conditions: Lactiplantibacillus plantarum, DSM20174; Strain ID DSM 20174; potato dextrose broth pH 3.8; read-out: Minimal Inhibitory Concentration (MIC)
[8] = tested on: Bacillus licheniformis; test: Antimicrobial activity (MIC); conditions: Bacillus licheniformis, DSM13; Strain ID DSM 13; potato dextrose broth pH 3.8; read-out: Minimal Inhibitory Concentration (MIC)
[9] = tested on: Zygosaccharomyces rouxii; test: Antimicrobial activity (MIC); conditions: Zygosaccharomyces rouxii, DSM7525; Strain ID DSM 7525; potato dextrose broth pH 3.8; read-out: Minimal Inhibitory Concentration (MIC)
[10] = tested on: Yarrowia lipolytica; test: Antimicrobial activity (MIC); conditions: Yarrowia lipolytica, DSM70561; Strain ID DSM 70561; potato dextrose broth pH 3.8; read-out: Minimal Inhibitory Concentration (MIC)
[11] = tested on: Candida parapsilosis; test: Antimicrobial activity (MIC); conditions: Lodderomyces parapsilosis, ATCC20384; Strain ID ATCC 20384; potato dextrose broth pH 3.8; read-out: Minimal Inhibitory Concentration (MIC)
[12] = tested on: Malassezia furfur; test: Antimicrobial activity (MIC); conditions: Malassezia furfur, DSM6170; Strain ID DSM 6170; potato dextrose broth pH 3.8; read-out: Minimal Inhibitory Concentration (MIC)
[13] = tested on: Leuconostoc lactis; test: Antimicrobial activity (MIC); conditions: Leuconostoc lactis, DSM20202; Strain ID DSM 20202; potato dextrose broth pH 3.8; read-out: Minimal Inhibitory Concentration (MIC)
[14] = tested on: Clostridium sporogenes; test: Antimicrobial activity (MIC); conditions: Clostridium sporogenes, ATCC19404; Strain ID ATCC 19404; potato dextrose broth pH 3.8; read-out: Minimal Inhibitory Concentration (MIC)
[15] = tested on: Actinomyces viscosus; test: Antimicrobial activity (MIC); conditions: Actinomyces viscosus; Strain ID DSM43798; potato dextrose broth pH 3.8; read-out: Minimal Inhibitory Concentration (MIC)
[16] = tested on: Botrytis cinerea; test: Antimicrobial activity (MIC); conditions: Botrytis cinerea, DSM5145; Strain ID DSM 5145; potato dextrose broth pH 3.8; read-out: Minimal Inhibitory Concentration (MIC)
[17] = tested on: Enterococcus faecalis; test: Antimicrobial activity (MIC); conditions: Enterococcus faecalis, ATCC7080; Strain ID ATCC 7080; potato dextrose broth pH 3.8; read-out: Minimal Inhibitory Concentration (MIC)
[18] = tested on: Streptococcus mutans; test: Antimicrobial activity (MIC); conditions: Streptococcus mutans, DSM20523; Strain ID DSM 20523; potato dextrose broth pH 3.8; read-out: Minimal Inhibitory Concentration (MIC)
[19] = tested on: Listeria monocytogenes; test: Antimicrobial activity (MIC); conditions: Listeria monocytogenes, DSM20600; Strain ID DSM 20600; potato dextrose broth pH 3.8; read-out: Minimal Inhibitory Concentration (MIC)
[20] = tested on: Candida albicans; test: Antimicrobial activity (MIC); conditions: Candida albicans; Strain ID ATCC10231; potato dextrose broth pH 3.8; read-out: Minimal Inhibitory Concentration (MIC)
[21] = tested on: Gluconacetobacter liquefaciens; test: Antimicrobial activity (MIC); conditions: Gluconacetobacter liquefaciens, DSM5603; Strain ID DSM 5603; potato dextrose broth pH 3.8; read-out: Minimal Inhibitory Concentration (MIC)
[22] = tested on: Porphyromonas gingivalis; test: Antimicrobial activity (MIC); conditions: Porphyromonas gingivalis, DSM20709; Strain ID DSM 20709; potato dextrose broth pH 3.8; read-out: Minimal Inhibitory Concentration (MIC)
[23] = tested on: Phanerochaete chrysosporium; test: Antimicrobial activity (MIC); conditions: Phanerodontia chrysosporium, DSM1556; Strain ID DSM 1556; potato dextrose broth pH 3.8; read-out: Minimal Inhibitory Concentration (MIC)
[24] = tested on: Bacillus cereus; test: Antimicrobial activity (MIC); conditions: Bacillus cereus; Strain ID DSM4490; potato dextrose broth pH 3.8; read-out: Minimal Inhibitory Concentration (MIC)
[25] = tested on: Clostridium perfringens; test: microbe, parasite or virus in culture; conditions: Clostridium perfringens, DSM756, pH 3.8, read-out: Minimal Inhibitory Concentration (MIC)
[26] = tested on: Enterobacter cloacae; test: Antimicrobial activity (MIC); conditions: Enterobacter cloacae, DSM6234; Strain ID DSM 6234; potato dextrose broth pH 3.8; read-out: Minimal Inhibitory Concentration (MIC)
[27] = tested on: Leuconostoc mesenteroides ssp. mesenteroides; test: Antimicrobial activity (MIC); conditions: Leuconostoc mesenteroides, DSM20343; Strain ID DSM 20343; potato dextrose broth pH 3.8; read-out: Minimal Inhibitory Concentration (MIC)

SMILES: C[C@@H]1O[C@@H](O[C@H]2[C@H](O[C@H]3CC[C@@]4(C)[C@@H](CC[C@]5(C)[C@@H]4CC=C4[C@@H]6CC(C)(C)CC[C@]6(C(=O)O)CC[C@]45C)[C@]3(C)CO)OC[C@H](O)[C@@H]2O)[C@H](O)[C@H](O[C@@H]2OC[C@@H](O)[C@H](O)[C@H]2O)[C@H]1O [A, Sapindoside B [30994-75-3]]
- MIC [1]: 80 µg/mL (≈ 90.6 µM)
- MIC [2]: 40 µg/mL (≈ 45.3 µM)
- MIC [3]: > 80 µg/mL
- MIC [4]: > 80 µg/mL
- MIC [5]: > 80 µg/mL
- MIC [6]: > 80 µg/mL
- MIC [7]: 40 µg/mL (≈ 45.3 µM)
- MIC [8]: > 80 µg/mL
- MIC [9]: 500 µg/mL (≈ 566 µM)
- MIC [10]: > 80 µg/mL
- MIC [11]: > 80 µg/mL
- MIC [12]: > 80 µg/mL
- MIC [13]: 80 µg/mL (≈ 90.6 µM)
- MIC [14]: 80 µg/mL (≈ 90.6 µM)
- MIC [15]: > 80 µg/mL
- MIC [16]: > 80 µg/mL
- MIC [17]: > 80 µg/mL
- MIC [18]: > 80 µg/mL
- MIC [19]: > 80 µg/mL
- MIC [20]: > 80 µg/mL
- MIC [21]: 140 µg/mL (≈ 159 µM)
- MIC [22]: > 80 µg/mL
- MIC [23]: > 80 µg/mL
- MIC [24]: > 80 µg/mL
- MIC [25]: > 80 µg/mL
- MIC [26]: > 80 µg/mL
- MIC [27]: > 80 µg/mL
